Molecules are shown by their SMILES.

From patent US20080214551A1, “Treatment of Burns” (AQ+ PLC, priority 2004, published 2008) come the findings set out here.

On to `Oc1cccc2cccnc12` [8-hydroxyquinoline], for which the “solubility in aqueous solution” value was “generally insoluble or only poorly soluble”.
